Holding throughout (type): biochemical
One experiment has as its target T1, thrombin (IIa) (Homo sapiens, UniProt P00734).
T1 construct: 0.5 nM human thrombin (IIa)
As to the kind of experiment: Fluorogenic enzyme assay (Example 5). The method in brief:
(§1)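 Kinetic constants (Km, kcat) of substrate hydrolysis are derived by fitting initial rates to the Michaelis-Menten equation. Assays use TBS at pH 7.4 and 22° C, with fluorescence of the released naphthalenesulfonamide fluorophore recorded at 352/470 nm.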

The target of experiment [1] is tissue plasminogen activator (t-PA) (Homo sapiens, UniProt P00750). As to the kind of experiment: Fluorogenic enzyme assay (Example 5). Particulars: 100 nM enzyme, substrate 1 μM. An outline of the steps:
as §1

For the next experiment, the target named is urokinase (u-PA) (Homo sapiens, UniProt P00749). Description: Fluorogenic enzyme assay (Example 5). Particulars: 100 nM enzyme, substrate 1 μM.
The target in another experiment is plasmin (Plm) (Homo sapiens, UniProt P00747). Description: Fluorogenic enzyme assay (Example 5). The following applies: 10 nM enzyme, substrate 1 μM. An outline of the steps: as §1
Experiment [2] addresses T2, factor VIIa (Homo sapiens, UniProt P08709).
T2 construct: directly measure the enzymatic activity of factor VIIa in the presence and absence of tissue factor and phospholipid
T2 sequence (P08709 213-466 limits assumed): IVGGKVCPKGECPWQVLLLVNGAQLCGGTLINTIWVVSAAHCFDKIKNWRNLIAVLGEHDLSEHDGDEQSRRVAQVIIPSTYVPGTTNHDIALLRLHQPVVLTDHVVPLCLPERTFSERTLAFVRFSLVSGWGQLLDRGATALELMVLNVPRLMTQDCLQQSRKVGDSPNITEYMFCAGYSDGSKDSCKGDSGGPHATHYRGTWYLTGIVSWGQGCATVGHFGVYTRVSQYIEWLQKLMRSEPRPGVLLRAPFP
T2 sequence (P08709 61-212 limits assumed): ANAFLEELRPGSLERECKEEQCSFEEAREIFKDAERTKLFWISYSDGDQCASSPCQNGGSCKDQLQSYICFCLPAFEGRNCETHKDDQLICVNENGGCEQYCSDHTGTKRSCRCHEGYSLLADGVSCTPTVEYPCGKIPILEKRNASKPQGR
As to the kind of experiment: Factor VIIa substrate hydrolysis in presence and absence of tissue factor (FIG. 2). From the text:
(§2) When coupled to methanesulfonyl-D-leucinyl-glycinyl-arginine(Mes-D-Leu-Gly-Arg), 6-amino-1-(N,N-diethyl)napthalenesulfonamide the resulting substrate yielded significant reactivity with factor VIIa. This substrate was sufficiently reactive with factor VIIa to allow reliable quantitation of factor VIIa activity at concentrations of about 10^-9 M. Further, this substrate was useful for the measurement of factor VIIa activity when it was bound to its co-factor protein tissue factor. The interaction of tissue factor with factor VIIa enhanced the factor VIIa dependent substrate hydrolysis by 120 fold. Thus, the invention provides unique substrates suitable for measuring both the activity of factor VIIa directly and in complex reactions involving the interaction between tissue factor and factor VIIa.
(§3) The binding of factor VIIa to tissue factor was analyzed by factor VIIa substrate hydrolysis when complexed with tissue factor. Tissue factor was relipidated into PC or PCPS vesicles as described above. The final concentration of tissue factor and phospholipid used for all binding studies was 2 nM and 200 μM respectively. In control experiments where tissue factor was in excess, 50 nM tissue factor and 200 μM PCPS vesicles were used. Recombinant factor VIIa (0.5 to 20 nM) was added to assembled TF/phospholipid complex and incubated for 15 minutes at 37° C. in HBS. The reaction was started by the addition of substrate (40 μM final) and the rate of substrate hydrolysis as reported by an increase in fluorescent intensity was recorded as described above in Example 5. The instrument was standardized daily using a 1 μM stock of the 6-amino-1-(N,N-diethyl)napthalenesulfonamide in HBS at 37° C. as described above.
(§4) The increase in the rate of factor VIIa substrate hydrolysis, both in the presence and absence of tissue factor, is linear over the concentration range tested, as shown in FIG. 2. […] In FIG. 2, filled triangles represent the rate of substrate hydrolysis as a function of increasing factor VIIa concentrations with an excess of tissue factor ([…]) in the assay. […]

In experiment [3] the test system is factor VIIa. Described as above. The following applies: with vs without tissue factor.
Excerpt: as §2, §3, §4

plasmin (Plm), sequence (P00747 581-810 limits assumed, species assumed): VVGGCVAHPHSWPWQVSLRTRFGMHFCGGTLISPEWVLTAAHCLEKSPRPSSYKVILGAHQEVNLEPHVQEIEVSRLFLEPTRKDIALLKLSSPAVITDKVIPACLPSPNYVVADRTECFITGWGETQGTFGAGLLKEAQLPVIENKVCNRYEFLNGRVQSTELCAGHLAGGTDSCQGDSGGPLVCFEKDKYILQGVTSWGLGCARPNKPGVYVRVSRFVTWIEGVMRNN
plasmin (Plm), sequence (P00747 97-580 limits assumed, species assumed): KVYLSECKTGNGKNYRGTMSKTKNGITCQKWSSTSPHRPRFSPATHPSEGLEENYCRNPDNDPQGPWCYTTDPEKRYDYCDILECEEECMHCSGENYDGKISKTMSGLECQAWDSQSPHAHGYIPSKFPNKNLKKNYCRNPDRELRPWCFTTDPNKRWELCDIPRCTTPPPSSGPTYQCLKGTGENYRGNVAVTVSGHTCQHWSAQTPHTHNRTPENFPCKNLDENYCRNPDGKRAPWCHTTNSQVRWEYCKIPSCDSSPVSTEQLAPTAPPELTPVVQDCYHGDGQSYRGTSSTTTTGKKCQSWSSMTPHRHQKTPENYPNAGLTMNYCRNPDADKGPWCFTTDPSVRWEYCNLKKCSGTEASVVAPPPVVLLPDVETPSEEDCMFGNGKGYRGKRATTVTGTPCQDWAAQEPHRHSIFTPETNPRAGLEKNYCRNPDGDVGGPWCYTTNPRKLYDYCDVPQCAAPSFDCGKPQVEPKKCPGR
tissue plasminogen activator (t-PA), sequence (P00750 36-562, species assumed): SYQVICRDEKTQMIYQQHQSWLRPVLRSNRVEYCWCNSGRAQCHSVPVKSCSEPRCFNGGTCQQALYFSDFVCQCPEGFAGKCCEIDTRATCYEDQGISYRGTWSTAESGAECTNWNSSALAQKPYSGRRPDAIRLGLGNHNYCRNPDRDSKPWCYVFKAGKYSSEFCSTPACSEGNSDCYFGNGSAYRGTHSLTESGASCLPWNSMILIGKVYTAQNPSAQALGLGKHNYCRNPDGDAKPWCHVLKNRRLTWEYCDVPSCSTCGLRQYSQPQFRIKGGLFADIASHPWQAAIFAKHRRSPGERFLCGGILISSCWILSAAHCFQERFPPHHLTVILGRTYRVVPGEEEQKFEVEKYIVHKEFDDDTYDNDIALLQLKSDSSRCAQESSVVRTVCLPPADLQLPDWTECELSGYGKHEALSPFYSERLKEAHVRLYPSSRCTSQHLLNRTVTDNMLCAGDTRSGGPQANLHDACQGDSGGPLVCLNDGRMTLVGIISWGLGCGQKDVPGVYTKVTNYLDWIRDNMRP

For the compound `CCN(CC)S(=O)(=O)c1cccc2cc(NC(=O)[C@H](CCCNC(=N)N)NC(=O)CNC(=O)[C@@H](CC(C)C)NS(C)(=O)=O)ccc12` [MesD-LPR-ANSN(C2 H5)2, 6-(Mes-D-Leu-Gly-Arg)amino-1-(N,N-diethyl)napththalenesulfonamide], the “TIME TO 10% HYDROLYSIS (HOURS), IIa” value at thrombin (IIa) (10 nM enzyme, substrate 1 μM) was 0.33 h. Also, on thrombin (IIa) (Table 9), the Michaelis-Menten constant (Km) is 31.6 µM; the “kcat /Km, IIa” value was 20000 M⁻¹ s⁻¹; the “kcat, IIa” value is 0.63 s⁻¹. For the same compound, in experiment [1], the “TIME TO 10% HYDROLYSIS (HOURS), t-PA” value was determined as 2 h. Besides, the “TIME TO 10% HYDROLYSIS (HOURS), u-PA” value at urokinase (u-PA) is 2 h. On plasmin (Plm), the “TIME TO 10% HYDROLYSIS (HOURS), Plm” value turned out to be 1 h. Further, the “factor VIIa concentration allowing reliable quantitation of factor VIIa activity” value on factor VIIa [2] is recorded as “about 10^-9 M”. The “enhancement of factor VIIa dependent substrate hydrolysis by tissue factor” value in the experiment on factor VIIa [3] (listed as 6-(Mes-D-Leu-Gly-Arg)amino-1-(N,N-diethyl)naphthalenesulfonamide) is reported as 120 fold. The “enhancement of factor VIIa dependent substrate hydrolysis by tissue factor” value in the experiment on factor VIIa [3] (listed as factor VIIa substrate) is on record as over 100 fold.
